The test system of the test is 377384-186-R-J1-PDC complex spheroid viability. Nature of the test: Anticancer human tumor 377384-186-R-J1-PDC patient-derived pancreatic carcinoma cell line growth inhibition [CLK]. The settings on record: for viability, T/C: stronger effect = lower value. From the text: A high-throughput screen of multi-cell type tumor spheroids was designed to identify active combinations of […] and targeted small molecules. Complex spheroids include a stromal component modeled by human endothelial cells (HUVEC) and fibroblasts modeled by human mesenchymal stem cells (MSCs). The concentration ranges selected for each drug and investigational agent were based upon clinically achievable concentrations if the clinical Cmax of the agent was known.
Compounds. The drugs and investigational agents: cirtuvivint (SM08502; NSC835563), CC-671 (NSC850746), vemurafenib (NSC761431), tapotoclax (NSC804041), sotorasib (NSC818433), adagrasib (NSC831453), MRTX-1133 (NSC836407), BAY2416964 (NSC825713), copanlisib (NSC816437), inavolisib (NSC800729), abemaciclib (NSC768073), osimertinib (NSC779217), entinostat (NSC756642), eltanexor (KPT-8602, NSC794443), venetoclax (NSC766270), ceralasertib (NSC777638), bortezomib (NSC756655), olaparib (NSC753686), talazoparib (NSC767125), alisertib (NSC759677), peposertib (NSC802822), gemcitabine (NSC613327), 5-fluorouracil (NSC19893), SN-38 (NSC673596), oxaliplatin (NSC266046), paclitaxel (NSC125973), and doxorubicin (NSC123127), were obtained from the National Cancer Institute (NCI) Developmental Therapeutics Program Chemical Repository. The FDA-approved anticancer drug set is available from the Developmental Therapeutics Program at https://dtp.cancer.gov/organization/dscb/obtaining/available plates.htm. […] The stock solutions were prepared in dimethyl sulfoxide (DMSO, Sigma-Aldrich, St. Louis, MO, cat. D2650), except for the platinum complexes which were prepared in saline (Quality Biological, Gaithersburg, MD, cat. 114-055-101), at 800-fold the tested concentration and stored at -70 degrees C prior to their use. All drugs and investigational agents were tested over a range starting from a high concentration at or near the clinical Cmax and decreasing in half-log increments. If the clinical Cmax for an agent had not been determined, the highest concentration tested was 10 microM.
Cell Culture. All cells were maintained in an incubator at 37 degrees C and 5% CO2 with 95% humidity. The PDC lines were cultured according to standard operating procedures established by the NCI PDMR. Briefly, all PDCs were thawed and cultured in Matrigel-coated flasks prepared with a working solution of 1X Ham's F-12 nutrient mix, without supplementation (Invitrogen, Waltham, MA, cat. 11765054), 100 U/mL penicillin-streptomycin (Invitrogen, cat. 15140122), and 2.5% Matrigel (Corning Inc., Corning, NY, cat. 354248) for the first three passages. The 947758-054-R-J2-PDC line was cultured in 6B/Colon 1A media, which includes advanced DMEM/F-12 (Thermo Fisher Scientific, cat. 12634028), 10 mM HEPES (Thermo Fisher Scientific, cat. 15630080), 1X GlutaMAX supplement (Thermo Fisher Scientific, cat. 35050061), 0.1 mg/mL primocin (InvivoGen, cat. ant-pm-2), 10% defined fetal bovine serum, heat inactivated (HyClone Laboratories Inc., cat. SH30070.03HI), 1.25 mM N-Acetyl-L-cysteine (Sigma-Aldrich, cat. A9165), 10 mM nicotinamide (Sigma-Aldrich, cat. N0636), 1X B-27 supplement (Thermo Fisher Scientific, cat. 17504044), 1X N-2 supplement (Thermo Fisher Scientific, cat. 17502048), and 10 microM Y-27632 dihydrochloride (Tocris Bioscience, cat. 1254). The 876862-298-R-J1-PDC was cultured in 6E media, which includes all 6B/Colon 1A media components plus 50% L-WRN conditioned media (ATCC, cat. CRL-3276), 50 ng/mL recombinant human EGF recombinant protein (hEGF; Thermo Fisher Scientific, cat. PHG0311), 10 ng/mL recombinant human fibroblast growth factor 10 (hGFG-10; PeproTech, cat. 100-26), 1 ng/mL recombinant human fibroblast growth factor 2 (hFGF-2; PeproTech, cat. 100-18B), and 1 µM prostaglandin E2 (PGE2; Tocris, cat. 2296). The 227483-062-R1-J1-PDC line was cultured in Panc media, containing all 6E components except hFGF-2, with the addition of 500 nM SB-431542 (Selleckchem, cat. S1067) and 10 nM gastrin (Tocris, cat. 3006). […]

Where “and” joins values, the source holds several entries; their conditions need not be identical. Equal values may be shown once. A value given as a limit tells only on which side of the number the result lay.

For orientation: viability, T/C means the ratio of treated to control. One may read the IC50 as the concentration at which inhibition is half-maximal.
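Note: spheroids exposed to agents for 7 days before reading.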
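Throughout, for viability, T/C: luminescence signal used as a stand-in for viable cells.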

Turning to `C#Cc1c(F)ccc2cc(O)cc(-c3ncc4c(N5CC6CCC(C5)N6)nc(OCC56CCCN5CC(F)C6)nc4c3F)c12` (stereo unspecified), the viability, T/C is 21.7% and 21.4% (compound 0.0316 µM); 9.43% and 10.6% (compound 0.1 µM); 5.31% and 3.97% (compound 0.316 µM); 4.69% and 4.41% (compound 1 µM); 2.25% and 2.02% (compound 3.16 µM); 1.85% and 1.77% (compound 10 µM). Further, the IC50 (curve of compound) is less than 31.6 nM.
For the molecule `C=C(F)C(=O)N1CCN(c2nc(OCC3CCCN3C)nc3c2CCN(c2cccc4cccc(Cl)c24)C3)CC1CC#N` (stereo unspecified), the viability, T/C was 88.4% and 94.1% (compound 0.0316 µM); 97.7% and 89.9% (compound 0.1 µM); 86.1% and 91.8% (compound 0.316 µM); 73.6% and 70.8% (compound 1 µM); 21.3% and 26.5% (compound 3.16 µM); 0.31% and 0.54% (compound 10 µM). Under “curve of compound”, the half-inhibitory concentration (IC50) was 1670 nM and 1730 nM.
With `C=CC(=O)N1CCN(c2nc(=O)n(-c3c(C)ccnc3C(C)C)c3nc(-c4c(O)cccc4F)c(F)cc23)C(C)C1` (stereo unspecified), the viability, T/C was 108% and 87.8% (compound 0.0316 µM); 83.9% and 127% (compound 0.1 µM); 100% and 101% (compound 0.316 µM); 119% and 105% (compound 1 µM); 110% and 117% (compound 3.16 µM); 84.3% and 90.5% (compound 10 µM). The IC50 (curve of compound) is more than 10000 nM.
As for `C=CC(=O)Nc1cc(Nc2nccc(-c3cn(C)c4ccccc34)n2)c(OC)cc1N(C)CCN(C)C`, the viability, T/C (compound 0.000949 µM) is 104% and 105%; the viability, T/C (compound 0.003 µM) is 84.7% and 99.9%; the viability, T/C (compound 0.00949 µM) is 85.3% and 108%; the viability, T/C (compound 0.03 µM) was 85.4% and 97.6%; the viability, T/C (compound 0.0949 µM) is 78% and 77.1%; the viability, T/C (compound 0.3 µM) is 50% and 62%. Besides, the IC50 (curve of compound) was more than 300 nM.
For `CC(C)CC(NC(=O)C(Cc1ccccc1)NC(=O)c1cnccn1)B(O)O` (stereo unspecified), the viability, T/C by setting is: (compound 0.000949 µM) 76.6% and 65.6%; (compound 0.003 µM) 1.85% and 2.08%; (compound 0.00949 µM) 0.32% and 0.23%; (compound 0.03 µM) 0.26% and 0.38%; (compound 0.0949 µM) 0.18% and 0.14%; (compound 0.3 µM) 0.78% and 0.14%. Besides, the IC50 (curve of compound) is 1.43 nM and 1.26 nM.
Consider `CC(CO)NC(=O)c1cc(-c2ccc(Cl)cc2)nn(-c2cnn(C)c2)c1=O` (stereo unspecified), for which the viability, T/C is, setting by setting: (compound 0.0316 µM) 94.9% and 112%; (compound 0.1 µM) 101% and 85.5%; (compound 0.316 µM) 105% and 103%; (compound 1 µM) 102% and 82.1%; (compound 3.16 µM) 77.7% and 70.1%; (compound 10 µM) 39.5% and 45.9%. Besides, the IC50 (curve of compound) is 7290 nM and 8480 nM.
For the molecule `CC(Nc1ccc2c(c1)OCCn1cc(N3C(=O)OCC3C(F)F)nc1-2)C(N)=O` (stereo unspecified), the viability, T/C is, setting by setting: (compound 0.0316 µM) 86.6% and 85.8%; (compound 0.1 µM) 90.3% and 69.1%; (compound 0.316 µM) 59.9% and 53%; (compound 1 µM) 56.3% and 54%; (compound 3.16 µM) 49.6% and 35.9%; (compound 10 µM) 43.6% and 36.5%.
Turning to `CCCS(=O)(=O)Nc1ccc(F)c(C(=O)c2c[nH]c3ncc(-c4ccc(Cl)cc4)cc23)c1F`, the viability, T/C (compound 0.0316 µM) was 94.9% and 92.5%; the viability, T/C (compound 0.1 µM) is 86% and 102%; the viability, T/C (compound 0.316 µM) was 120% and 114%; the viability, T/C (compound 1 µM) was 126% and 124%; the viability, T/C (compound 3.16 µM) was 114% and 105%; the viability, T/C (compound 10 µM) is 59.8% and 57.9%. Besides, the IC50 (curve of compound) is more than 10000 nM.
`CCN1CCN(Cc2ccc(Nc3ncc(F)c(-c4cc(F)c5nc(C)n(C(C)C)c5c4)n3)nc2)CC1`: the viability, T/C (compound 0.00316 µM) is 84.8% and 87.7%; the viability, T/C (compound 0.01 µM) is 74.9% and 74.1%; the viability, T/C (compound 0.0316 µM) was 74% and 73.8%; the viability, T/C (compound 0.1 µM) was 61% and 58.6%; the viability, T/C (compound 0.316 µM) was 45.6% and 50.9%; the viability, T/C (compound 1 µM) is 39.5% and 40.4%. Further, for the setting “curve of compound”, the IC50 is 245 nM and 335 nM.
Take `CCc1c2c(nc3ccc(O)cc13)-c1cc3c(c(=O)n1C2)COC(=O)[C@]3(O)CC`: the viability, T/C reads like this: (compound 0.00316 µM) 30% and 30.1%; (compound 0.01 µM) 17.2% and 14.6%; (compound 0.0316 µM) 6.41% and 5.33%; (compound 0.1 µM) 3.96% and 2.67%; (compound 0.316 µM) 1.37% and 1.52%; (compound 1 µM) 0.82% and 0.63%. Besides, the IC50 (curve of compound) was less than 3.16 nM.
`CN1CCN(c2cc(C(=O)Nc3cc4cc(-c5cnn(C)c5)ccc4cn3)ccn2)CC1`: the viability, T/C is 102% [middle of 12 runs] (compound 0.0316 µM); 103% [middle of 12 runs] (compound 0.1 µM); 25.7% [middle of 12 runs] (compound 0.316 µM); 1.33% [middle of 12 runs] (compound 1 µM); 0.96% [middle of 11 runs] (compound 3.16 µM); 0.49% [middle of 11 runs] (compound 10 µM). Also, the IC50 (compound alone, run of 07/31/2023) was 220 nM [middle of 9 runs].
As to `CNC(=O)c1ccc(Nc2nc(OC3CCCC3)c3c(-c4ccc5nc(C)oc5c4)c[nH]c3n2)c(OC)c1`, the viability, T/C is 102% [middle of 12 runs] (compound 0.0316 µM); 57.2% [middle of 12 runs] (compound 0.1 µM); 20.9% [middle of 12 runs] (compound 0.316 µM); 20.4% [middle of 12 runs] (compound 1 µM); 21% [middle of 12 runs] (compound 3.16 µM); 21.6% [middle of 12 runs] (compound 10 µM). Besides, for the setting “compound alone, run of 08/01/2023”, the IC50 is 130 nM [middle of 11 runs].
Turning to `COC1C=CCC(C)C(C)S(=O)(=O)NC(=O)c2ccc3c(c2)N(CC2CCC21)CC1(CCCc2cc(Cl)ccc21)CO3` (stereo unspecified), the viability, T/C reads like this: (compound 0.0316 µM) 88.4% and 110%; (compound 0.1 µM) 101% and 94.2%; (compound 0.316 µM) 82% and 79%; (compound 1 µM) 96.1% and 69.6%; (compound 3.16 µM) 65.8% and 61.7%; (compound 10 µM) 11.2% and 20.1%. For the same molecule, for the setting “curve of compound”, the IC50 was 4410 nM and 3370 nM.
As to `COc1c(OCCCN2CCOCC2)ccc2c3n(c(=NC(=O)c4cnc(N)nc4)nc12)CCN3`, the viability, T/C is, setting by setting: (compound 0.00316 µM) 89.6% and 77.6%; (compound 0.01 µM) 72.4% and 61.6%; (compound 0.0316 µM) 50% and 52.3%; (compound 0.1 µM) 34.4% and 30.3%; (compound 0.316 µM) 22.4% and 22.7%; (compound 1 µM) 14.3% and 13.8%. For the same molecule, the IC50 (curve of compound) is 34.4 nM and 28.3 nM.
With `Cn1ncnc1[C@H]1c2n[nH]c(=O)c3cc(F)cc(c23)N[C@@H]1c1ccc(F)cc1`, the viability, T/C reads like this: (compound 0.000316 µM) 86.8% and 87.2%; (compound 0.001 µM) 73.7% and 74.4%; (compound 0.00316 µM) 62.4% and 66.9%; (compound 0.01 µM) 57.6% and 62.5%; (compound 0.0316 µM) 53.4% and 47.6%; (compound 0.1 µM) 41.8% and 43.1%. Moreover, the half-maximal inhibitory concentration (IC50) (curve of compound) is 30.7 nM and 33.4 nM.
On to `NC(=O)C(=Cn1cnc(-c2cc(C(F)(F)F)cc(C(F)(F)F)c2)n1)c1cncnc1`, for which the viability, T/C (compound 0.00949 µM) is 78.2% and 92.5%; the viability, T/C (compound 0.03 µM) was 70.7% and 66.7%; the viability, T/C (compound 0.0949 µM) is 41.7% and 36.3%; the viability, T/C (compound 0.3 µM) is 27% and 18.9%; the viability, T/C (compound 0.949 µM) was 7.58% and 5.02%; the viability, T/C (compound 3 µM) was 3.05% and 2.18%. Also, the concentration for half-maximal inhibition (IC50) (curve of compound) was 76 nM and 57.4 nM.

(Values after PubChem BioAssay AID2060616 (Molecular Pharmacology Branch, DTP, NCI, 2025).)
